{
  "source": "paper PMC12028158",
  "about": "“Synthesis and In Vitro Evaluation of the Anticancer Effect of Novel Phosphonium Vindoline Derivatives” (International Journal of Molecular Sciences, 2025)",
  "type_in_all_cases": "cell-based",
  "key": {"SR": {"tested_on": "SR", "test": "NCI60 one-dose screen", "settings": "Homo sapiens, read-out: Growth percent"}, "Melanoma panel": {"tested_on": "Melanoma panel", "test": "NCI60 five-dose screen, panel mean", "settings": "Homo sapiens, read-out: Mean GI50"}, "HS 578T": {"tested_on": "HS 578T", "test": "NCI60 one-dose screen", "settings": "Homo sapiens, Hs-578T, read-out: Growth percent"}, "NCI-H460": {"tested_on": "NCI-H460", "test": "NCI60 five-dose screen", "settings": "Homo sapiens, NCI-H460"}, "T-47D [1]": {"tested_on": "T-47D", "test": "NCI60 one-dose screen", "settings": "Homo sapiens, T47D, read-out: Growth percent"}, "EKVX [2]": {"tested_on": "EKVX", "test": "NCI60 five-dose screen", "settings": "Homo sapiens"}, "NCI-H522 [3]": {"tested_on": "NCI-H522", "test": "NCI60 one-dose screen", "settings": "Homo sapiens, NCI-H522, read-out: Growth percent"}, "HOP-62 [4]": {"tested_on": "HOP-62", "test": "NCI60 five-dose screen", "settings": "Homo sapiens, HOP-62"}, "SW-620": {"tested_on": "SW-620", "test": "NCI60 five-dose screen", "settings": "Homo sapiens, SW-620"}, "EKVX [5]": {"tested_on": "EKVX", "test": "NCI60 one-dose screen", "settings": "Homo sapiens, read-out: Growth percent"}, "IGROV1 [6]": {"tested_on": "IGROV1", "test": "NCI60 one-dose screen", "settings": "Homo sapiens, IGROV-1, read-out: Growth percent"}, "Leukemia panel": {"tested_on": "Leukemia panel", "test": "NCI60 five-dose screen, panel mean", "settings": "Homo sapiens, read-out: Mean GI50"}, "UO-31": {"tested_on": "UO-31", "test": "NCI60 one-dose screen", "settings": "Homo sapiens, UO-31, read-out: Growth percent"}, "K-562": {"tested_on": "K-562", "test": "NCI60 five-dose screen", "settings": "Homo sapiens, K562"}, "U251 [7]": {"tested_on": "U251", "test": "NCI60 five-dose screen", "settings": "Homo sapiens, U-251"}, "UACC-62": {"tested_on": "UACC-62", "test": "NCI60 one-dose screen", "settings": "Homo sapiens, UACC-62, read-out: Growth percent"}, "MDA-MB-231/ATCC": {"tested_on": "MDA-MB-231/ATCC", "test": "NCI60 one-dose screen", "settings": "Homo sapiens, MDA-MB-231, read-out: Growth percent"}, "U251 [8]": {"tested_on": "U251", "test": "NCI60 one-dose screen", "settings": "Homo sapiens, U-251, read-out: Growth percent"}, "CCRF-CEM [9]": {"tested_on": "CCRF-CEM", "test": "NCI60 one-dose screen", "settings": "Homo sapiens, read-out: Growth percent"}, "T-47D [10]": {"tested_on": "T-47D", "test": "NCI60 five-dose screen", "settings": "Homo sapiens, T47D"}, "CCRF-CEM [11]": {"tested_on": "CCRF-CEM", "test": "NCI60 five-dose screen", "settings": "Homo sapiens"}, "RPMI-8226": {"tested_on": "RPMI-8226", "test": "NCI60 five-dose screen", "settings": "Homo sapiens, RPMI-8226"}, "LOX IMVI [12]": {"tested_on": "LOX IMVI", "test": "NCI60 five-dose screen", "settings": "Homo sapiens"}, "UACC-257": {"tested_on": "UACC-257", "test": "NCI60 one-dose screen", "settings": "Homo sapiens, UACC-257, read-out: Growth percent"}, "MCF7": {"tested_on": "MCF7", "test": "NCI60 one-dose screen", "settings": "Homo sapiens, MCF7, read-out: Growth percent"}, "SK-MEL-2": {"tested_on": "SK-MEL-2", "test": "NCI60 one-dose screen", "settings": "Homo sapiens, SK-MEL-2, read-out: Growth percent"}, "SF-539": {"tested_on": "SF-539", "test": "NCI60 one-dose screen", "settings": "Homo sapiens, SF-539, read-out: Growth percent"}, "ACHN": {"tested_on": "ACHN", "test": "NCI60 five-dose screen", "settings": "Homo sapiens"}, "MDA-MB-468": {"tested_on": "MDA-MB-468", "test": "NCI60 five-dose screen", "settings": "Homo sapiens, MDA-MB-468"}, "HCC-2998": {"tested_on": "HCC-2998", "test": "NCI60 five-dose screen", "settings": "Homo sapiens, HCC 2998"}, "DU-145": {"tested_on": "DU-145", "test": "NCI60 one-dose screen", "settings": "Homo sapiens, DU-145, read-out: Growth percent"}, "HOP-62 [13]": {"tested_on": "HOP-62", "test": "NCI60 one-dose screen", "settings": "Homo sapiens, HOP-62, read-out: Growth percent"}, "Prostate Cancer panel": {"tested_on": "Prostate Cancer panel", "test": "NCI60 five-dose screen, panel mean", "settings": "Homo sapiens, read-out: Mean GI50"}, "OVCAR-5": {"tested_on": "OVCAR-5", "test": "NCI60 five-dose screen", "settings": "Homo sapiens, OVCAR-5"}, "IGROV1 [14]": {"tested_on": "IGROV1", "test": "NCI60 five-dose screen", "settings": "Homo sapiens, IGROV-1"}, "RXF 393": {"tested_on": "RXF 393", "test": "NCI60 five-dose screen", "settings": "Homo sapiens, RXF 393"}, "A498": {"tested_on": "A498", "test": "NCI60 one-dose screen", "settings": "Homo sapiens, A498, read-out: Growth percent"}, "MDA-MB-435": {"tested_on": "MDA-MB-435", "test": "NCI60 one-dose screen", "settings": "Homo sapiens, MDA-MB-435, read-out: Growth percent"}, "CAKI-1": {"tested_on": "CAKI-1", "test": "NCI60 five-dose screen", "settings": "Homo sapiens, CAKI-1"}, "NCI-H522 [15]": {"tested_on": "NCI-H522", "test": "NCI60 five-dose screen", "settings": "Homo sapiens, NCI-H522"}, "TK-10": {"tested_on": "TK-10", "test": "NCI60 five-dose screen", "settings": "Homo sapiens, TK-10"}, "NCI/ADR-RES": {"tested_on": "NCI/ADR-RES", "test": "NCI60 one-dose screen", "settings": "Homo sapiens, read-out: Growth percent"}, "HOP-92": {"tested_on": "HOP-92", "test": "NCI60 one-dose screen", "settings": "Homo sapiens, HOP-92, read-out: Growth percent"}, "LOX IMVI [16]": {"tested_on": "LOX IMVI", "test": "NCI60 one-dose screen", "settings": "Homo sapiens, read-out: Growth percent"}, "PC-3": {"tested_on": "PC-3", "test": "NCI60 five-dose screen", "settings": "Homo sapiens, PC-3"}, "HL-60(TB)": {"tested_on": "HL-60(TB)", "test": "NCI60 one-dose screen", "settings": "Homo sapiens, HL-60, read-out: Growth percent"}, "786-0": {"tested_on": "786-0", "test": "NCI60 one-dose screen", "settings": "Homo sapiens, 786-0, read-out: Growth percent"}},
  "data": [
    {"smiles": "CCC12C=CCN3CCC4(c5ccc(OC)cc5N(C)C4C(O)(C(=O)OC)C1OC(=O)CCC[P+](c1ccc(C)cc1)(c1ccc(C)cc1)c1ccc(C)cc1)C32", "note": "(centres unmarked) [9a]", "values": [
      {"measurement": "activity at 10 µM", "setting": "SR", "value": 5.74, "unit": "%"},
      {"measurement": "GI50", "setting": "Melanoma panel", "value": 0.35, "unit": "µM"},
      {"measurement": "activity at 10 µM", "setting": "HS 578T", "value": -60.3, "unit": "%"},
      {"measurement": "GI50", "setting": "NCI-H460", "value": 0.327, "unit": "µM"},
      {"measurement": "activity at 10 µM", "setting": "T-47D [1]", "value": -78.4, "unit": "%"},
      {"measurement": "GI50", "setting": "EKVX [2]", "value": 0.534, "unit": "µM"},
      {"measurement": "activity at 10 µM", "setting": "NCI-H522 [3]", "value": -86.3, "unit": "%"},
      {"measurement": "GI50", "setting": "HOP-62 [4]", "value": 0.47, "unit": "µM"},
      {"measurement": "GI50", "setting": "SW-620", "value": 0.434, "unit": "µM"},
      {"measurement": "activity at 10 µM", "setting": "EKVX [5]", "value": -94.7, "unit": "%"},
      {"measurement": "activity at 10 µM", "setting": "IGROV1 [6]", "value": -89.5, "unit": "%"},
      {"measurement": "GI50", "setting": "Leukemia panel", "value": 0.26, "unit": "µM"},
      {"measurement": "activity at 10 µM", "setting": "UO-31", "value": -97.4, "unit": "%"},
      {"measurement": "GI50", "setting": "K-562", "value": 0.291, "unit": "µM"},
      {"measurement": "GI50", "setting": "U251 [7]", "value": 0.291, "unit": "µM"},
      {"measurement": "activity at 10 µM", "setting": "UACC-62", "value": -96.8, "unit": "%"},
      {"measurement": "activity at 10 µM", "setting": "MDA-MB-231/ATCC", "value": -94.8, "unit": "%"},
      {"measurement": "activity at 10 µM", "setting": "U251 [8]", "value": -91.2, "unit": "%"},
      {"measurement": "activity at 10 µM", "setting": "CCRF-CEM [9]", "value": -67, "unit": "%"},
      {"measurement": "GI50", "setting": "T-47D [10]", "value": 0.314, "unit": "µM"},
      {"measurement": "GI50", "setting": "CCRF-CEM [11]", "value": 0.359, "unit": "µM"},
      {"measurement": "GI50", "setting": "RPMI-8226", "value": 0.186, "unit": "µM"},
      {"measurement": "GI50", "setting": "LOX IMVI [12]", "value": 0.333, "unit": "µM"},
      {"measurement": "activity at 10 µM", "setting": "UACC-257", "value": -92.7, "unit": "%"},
      {"measurement": "activity at 10 µM", "setting": "MCF7", "value": -76.3, "unit": "%"},
      {"measurement": "activity at 10 µM", "setting": "SK-MEL-2", "value": -85.4, "unit": "%"},
      {"measurement": "activity at 10 µM", "setting": "SF-539", "value": -96.6, "unit": "%"},
      {"measurement": "GI50", "setting": "ACHN", "value": 1.61, "unit": "µM"},
      {"measurement": "GI50", "setting": "MDA-MB-468", "value": 0.165, "unit": "µM"},
      {"measurement": "GI50", "setting": "HCC-2998", "value": 0.415, "unit": "µM"},
      {"measurement": "activity at 10 µM", "setting": "DU-145", "value": -78.5, "unit": "%"},
      {"measurement": "activity at 10 µM", "setting": "HOP-62 [13]", "value": -81.6, "unit": "%"},
      {"measurement": "GI50", "setting": "Prostate Cancer panel", "value": 0.38, "unit": "µM"},
      {"measurement": "GI50", "setting": "OVCAR-5", "value": 0.331, "unit": "µM"},
      {"measurement": "GI50", "setting": "IGROV1 [14]", "value": 0.383, "unit": "µM"},
      {"measurement": "GI50", "setting": "RXF 393", "value": 0.279, "unit": "µM"},
      {"measurement": "activity at 10 µM", "setting": "A498", "value": -88.6, "unit": "%"},
      {"measurement": "activity at 10 µM", "setting": "MDA-MB-435", "value": -57.5, "unit": "%"},
      {"measurement": "GI50", "setting": "CAKI-1", "value": 1.87, "unit": "µM"},
      {"measurement": "GI50", "setting": "NCI-H522 [15]", "value": 0.258, "unit": "µM"},
      {"measurement": "GI50", "setting": "TK-10", "value": 0.6, "unit": "µM"},
      {"measurement": "activity at 10 µM", "setting": "NCI/ADR-RES", "value": 18.1, "unit": "%"},
      {"measurement": "activity at 10 µM", "setting": "HOP-92", "value": -83.2, "unit": "%"},
      {"measurement": "activity at 10 µM", "setting": "LOX IMVI [16]", "value": -89.3, "unit": "%"},
      {"measurement": "GI50", "setting": "PC-3", "value": 0.31, "unit": "µM"},
      {"measurement": "activity at 10 µM", "setting": "HL-60(TB)", "value": -47.5, "unit": "%"},
      {"measurement": "activity at 10 µM", "setting": "786-0", "value": -88, "unit": "%"}
    ]}
  ]
}
